These are literature values, as cited in patent US9445622B2, “Compositions and methods for improving creatine solubility and stability” (Glanbia Nutritionals (Ireland) Ltd., priority 2009, dated 2016).

The conditions of the data set: solid form, over years, even at elevated temperatures.

Molecules are shown by their SMILES.

For the compound `CN(CC(=O)O)C(=N)N.O` [creatine monohydrate powder, creatine monohydrate], the “stability of solid powder” value was “no signs of degradation”.
